From the supplement of paper PMC10307832 come the findings set out here.

Test in all cases: relative viability (nuclei count vs DMSO), 5 days (fraction); higher = more cells survive
Compound in test [1]: CC1=CC(=CC=C1)NC2=NC(=CS2)C3=CC=NC=C3 + O=C(c1cc(Cc2n[nH]c(=O)c3ccccc23)ccc1F)N1CCN(C(=O)C2CC2)CC1 [Olaparib] (partner 8 µM)
The procedure, abridged:
(§1)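 Each reported value is a median over duplicate plates. It expresses relative viability: treated-well nuclei count divided by vehicle-well nuclei count. Lung cancer cell lines in 1536-well plates were dosed by pin tool a day after seeding, alone with one drug or with a fixed anchor-drug dose plus five library-drug doses (not always all listed) in √10 steps, and nuclei were counted after 5 days.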

Compound in test [2]: Cc1ccc(NC(=O)c2ccc(CN3CCN(C)CC3)cc2)cc1Nc1nc(-c2cccnc2)cs1 [Masitinib] + Cc1nc(Nc2ncc(C(=O)Nc3c(C)cccc3Cl)s2)cc(N2CCN(CCO)CC2)n1 [Dasatinib] (partner 0.075 µM)
The procedure, abridged: as §1

Compound in test [3]: CC1=CC(=CC=C1)NC2=NC(=CS2)C3=CC=NC=C3 + CC(C)C[C@H](NC(=O)[C@H](Cc1ccccc1)NC(=O)c1cnccn1)B(O)O [Bortezomib] (partner 0.002 µM)
The procedure, abridged:
as §1

Compound in test [4]: CC1=CC(=CC=C1)NC2=NC(=CS2)C3=CC=NC=C3 + CS(=O)(=O)N1CCN(Cc2cc3nc(-c4cccc5[nH]ncc45)nc(N4CCOCC4)c3s2)CC1 [Pictilisib] (partner 1 µM)
An outline of the steps: as §1

Turning to NCI-H3122, the relative viability in test [1] (first compound 0.08 µM) stood at 0.578; in test [1] (first compound 0.253 µM), 0.591; in test [1] (first compound 0.8 µM), 0.548; in test [1] (first compound 2.53 µM) it was 0.587; in test [1] (first compound 8 µM) it was 0.457; in test [2] (first compound 0.01 µM), 0.512. Also, the relative viability in test [2] (first compound 0.03162 µM) was 0.724; in test [2] (first compound 0.1 µM) it was 0.61; in test [2] (first compound 0.3162 µM), 0.615; in test [2] (first compound 1 µM) it was 0.916; in test [3] (first compound 0.08 µM), 1.03; in test [3] (first compound 0.253 µM), 1.07. Further, the relative viability in test [3] (first compound 0.8 µM) came to 1.06; in test [3] (first compound 2.53 µM), 0.996; in test [3] (first compound 8 µM) it was 1.03; in test [4] (first compound 0.08 µM), 0.648; in test [4] (first compound 0.253 µM), 0.632; in test [4] (first compound 0.8 µM), 0.667. Further, the relative viability in test [4] (first compound 2.53 µM) was found to be 0.727; in test [4] (first compound 8 µM), 0.83.

Consider PC-3 [JPC-3], for which the relative viability in test [1] (first compound 0.08 µM) was found to be 0.926; in test [1] (first compound 0.8 µM), 1.01; in test [1] (first compound 2.53 µM) it was 1.07; in test [1] (first compound 8 µM), 0.924; in test [2] (first compound 0.01 µM), 0.984; in test [2] (first compound 0.03162 µM), 0.839. In addition, the relative viability was 0.973 in test [2] (first compound 0.1 µM); 0.927 in test [2] (first compound 0.3162 µM); 0.954 in test [2] (first compound 1 µM); 0.743 in test [3] (first compound 0.08 µM); 0.821 in test [3] (first compound 0.253 µM); 0.577 in test [3] (first compound 0.8 µM). In addition, the relative viability is 0.636 in test [3] (first compound 2.53 µM); 0.361 in test [3] (first compound 8 µM); 0.575 in test [4] (first compound 0.08 µM); 0.609 in test [4] (first compound 0.253 µM); 0.617 in test [4] (first compound 0.8 µM); 0.629 in test [4] (first compound 2.53 µM). Further, the relative viability in test [4] (first compound 8 µM) was 0.719.

As for PC-14, the relative viability in test [1] (first compound 0.08 µM) is 0.298; in test [1] (first compound 0.253 µM), 0.289; in test [1] (first compound 0.8 µM) it was 0.289; in test [1] (first compound 2.53 µM) it was 0.238; in test [1] (first compound 8 µM) it was 0.162; in test [2] (first compound 0.01 µM), 0.266. Further, the relative viability in test [2] (first compound 0.03162 µM) stood at 0.241; in test [2] (first compound 0.1 µM), 0.28; in test [2] (first compound 0.3162 µM), 0.181; in test [2] (first compound 1 µM), 0.217; in test [3] (first compound 0.08 µM), 0.966; in test [3] (first compound 0.253 µM), 0.899. The relative viability in test [3] (first compound 0.8 µM) turned out to be 0.685; in test [3] (first compound 2.53 µM), 0.909; in test [3] (first compound 8 µM), 0.499; in test [4] (first compound 0.08 µM), 0.719; in test [4] (first compound 0.253 µM), 0.666; in test [4] (first compound 0.8 µM), 0.634. Moreover, the relative viability in test [4] (first compound 2.53 µM) came to 0.752; in test [4] (first compound 8 µM), 0.598.

Consider RERF-LC-KJ, for which the relative viability in test [1] (first compound 0.08 µM) is 0.509; in test [1] (first compound 0.253 µM) it was 0.258; in test [1] (first compound 0.8 µM), 0.184; in test [1] (first compound 2.53 µM) it was 0.181; in test [1] (first compound 8 µM), 0.163; in test [2] (first compound 0.01 µM), 0.881. For the same cell line, the relative viability in test [2] (first compound 0.03162 µM) turned out to be 0.806; in test [2] (first compound 0.1 µM), 0.975; in test [2] (first compound 0.3162 µM), 0.667; in test [2] (first compound 1 µM), 0.702; in test [3] (first compound 0.08 µM), 0.963; in test [3] (first compound 0.253 µM), 1.07. The relative viability in test [3] (first compound 0.8 µM) came out at 0.786; in test [3] (first compound 2.53 µM) it was 0.813; in test [3] (first compound 8 µM), 0.7; in test [4] (first compound 0.08 µM), 0.509; in test [4] (first compound 0.253 µM), 0.49; in test [4] (first compound 0.8 µM), 0.541. In addition, the relative viability in test [4] (first compound 2.53 µM) was determined as 0.472; in test [4] (first compound 8 µM), 0.497.

For the cell line SK-LU-1, the relative viability in test [1] (first compound 0.08 µM) worked out at 0.49; in test [1] (first compound 0.253 µM) it was 0.435; in test [1] (first compound 2.53 µM) it was 0.459; in test [1] (first compound 8 µM), 0.433; in test [2] (first compound 0.01 µM), 0.157; in test [2] (first compound 0.03162 µM), 0.202. The relative viability is 0.174 in test [2] (first compound 0.1 µM); 0.195 in test [2] (first compound 0.3162 µM); 0.18 in test [2] (first compound 1 µM); 0.905 in test [3] (first compound 0.08 µM); 1.07 in test [3] (first compound 0.253 µM); 0.884 in test [3] (first compound 0.8 µM). The relative viability in test [3] (first compound 2.53 µM) turned out to be 1.3; in test [3] (first compound 8 µM), 1.19; in test [4] (first compound 0.08 µM) it was 0.527; in test [4] (first compound 0.253 µM) it was 0.575; in test [4] (first compound 2.53 µM), 0.586; in test [4] (first compound 8 µM), 0.626.

SW 1573: the relative viability came to 0.486 in test [1] (first compound 0.08 µM); 0.544 in test [1] (first compound 0.253 µM); 0.526 in test [1] (first compound 0.8 µM); 0.465 in test [1] (first compound 2.53 µM); 0.441 in test [1] (first compound 8 µM); 0.452 in test [2] (first compound 0.01 µM). Also, the relative viability was found to be 0.463 in test [2] (first compound 0.03162 µM); 0.526 in test [2] (first compound 0.1 µM); 0.52 in test [2] (first compound 0.3162 µM); 0.476 in test [2] (first compound 1 µM); 1.06 in test [3] (first compound 0.08 µM); 0.954 in test [3] (first compound 0.253 µM). In addition, the relative viability in test [3] (first compound 0.8 µM) came to 1.03; in test [3] (first compound 2.53 µM) it was 1.09; in test [3] (first compound 8 µM) it was 0.807; in test [4] (first compound 0.08 µM), 0.473; in test [4] (first compound 0.253 µM), 0.454; in test [4] (first compound 0.8 µM), 0.521. The results for the relative viability in test [4] (first compound 2.53 µM) and in test [4] (first compound 8 µM) were 0.57 and 0.488, respectively.

In the case of UMC-11, the relative viability in test [1] (first compound 0.08 µM) came out at 0.339; in test [1] (first compound 0.253 µM) it was 0.386; in test [1] (first compound 0.8 µM), 0.381; in test [1] (first compound 2.53 µM), 0.806; in test [1] (first compound 8 µM), 0.402; in test [2] (first compound 0.03162 µM), 0.35. Moreover, the relative viability in test [2] (first compound 0.1 µM) stood at 0.535; in test [2] (first compound 0.3162 µM), 0.556; in test [2] (first compound 1 µM), 0.509; in test [3] (first compound 0.08 µM) it was 0.761; in test [3] (first compound 0.253 µM) it was 0.839; in test [3] (first compound 0.8 µM), 0.635. For the same cell line, the relative viability in test [3] (first compound 2.53 µM) turned out to be 0.67; in test [3] (first compound 8 µM), 0.686; in test [4] (first compound 0.08 µM), 0.757; in test [4] (first compound 0.253 µM), 0.746; in test [4] (first compound 0.8 µM), 0.729; in test [4] (first compound 2.53 µM), 0.761. For the same cell line, the relative viability in test [4] (first compound 8 µM) was determined as 0.824.
